We go through 13 compounds from US20240400555A1 (Initial Therapeutics, Inc., priority 2023, published 2024).

In general, IC50 refers to the concentration that inhibits the measured activity by half.

This assay concerns MV-4-11 cells. Briefly: Cell Viability Assay in MV-4-11 Cells. Format: cell-based. As to conditions: Homo sapiens, MV4-11, 72 h, MV-4-11 cells, 72 h, Cell-Titer Glo; read-out: IC50. In short, it runs like this:
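MV-4-11 cells at 7,000/well in IMDM with 10% FBS, exposed to compound for 72 h. Viability by CellTiter-Glo luminescence, normalized to DMSO as 100%, fitted with a four-parameter curve.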
Take `O=C(c1ccc(-n2nnc3cccnc32)cc1F)N(c1nccc2sc(CCc3ccncc3)cc12)[C@@H]1CCCNC1` [Example 503, 2-fluoro-N-[(3R)-3-piperidyl]-N-[2-[2-(4-pyridyl)ethyl]thieno[3,2-c]pyridin-4-yl]-4-(triazolo[4,5-b]pyridin-3-yl)benzamide]: the IC50 was 2300 nM.
Then `Cn1cc(-c2ccc(C(=O)N(c3nccc4sc(/C=C\CO)cc34)[C@@H]3CCCNC3)c(F)c2)nn1` [Example 504, (R,Z)-2-fluoro-N-(2-(3-hydroxyprop-1-en-1-yl)thieno[3,2-c]pyridin-4-yl)-4-(1-methyl-1H-1,2,3-triazol-4-yl)-N-(piperidin-3-yl)benzamide], with 810 nM; and `Cn1cc(-c2ccc(C(=O)N(c3nccc4cc(-c5ccncc5)sc34)[C@@H]3CCCNC3)c(F)c2)nn1` [Example 505, 2-fluoro-4-(1-methyltriazol-4-yl)-N-[(3R)-3-piperidyl]-N-[2-(4-pyridyl)thieno[2,3-c]pyridin-7-yl]benzamide], with 250 nM; and `Cn1cc(-c2ccc(C(=O)N(c3nccc4sc(Br)cc34)[C@@H]3CCCNC3)c(F)c2)nn1` [Example 506, N-(2-bromothieno[3,2-c]pyridin-4-yl)-2-fluoro-4-(1-methyltriazol-4-yl)-N-[(3R)-3-piperidyl] benzamide], with 710 nM.
Then `Cn1cc(-c2ccc(C(=O)N(c3nccc4sc(-c5ccccn5)cc34)[C@@H]3CCCNC3)c(F)c2)nn1` [Example 507, 2-fluoro-4-(1-methyltriazol-4-yl)-N-[(3R)-3-piperidyl]-N-[2-(2-pyridyl)thieno [3,2-c]pyridin-4-yl] benzamide], with 610 nM; and `Cn1cc(-c2ccc(C(=O)N(c3nccc4sc(-c5cccnc5)cc34)[C@@H]3CCCNC3)c(F)c2)nn1` [Example 508, 2-fluoro-4-(1-methyltriazol-4-yl)-N-[(3R)-3-piperidyl]-N-[2-(3-pyridyl)thieno [3,2-c]pyridin-4-yl] benzamide], with 300 nM; and `Cn1cc(-c2ccc(C(=O)N(c3nccc4sc(-c5cccc(N)c5)cc34)[C@@H]3CCCNC3)c(F)c2)nn1` [Example 509, N-[2-(3-aminophenyl)thieno[3,2-c]pyridin-4-yl]-2-fluoro-4-(1-methyltriazol-4-yl)-N-[(3R)-3-piperidyl]benzamidezamide], with 520 nM.
Next, `Cn1cc(-c2ccc(C(=O)N(c3nccc4sc(-c5ccccc5)cc34)[C@@H]3CCCNC3)c(F)c2)nn1` [Example 510, 2-fluoro-4-(1-methyltriazol-4-yl)-N-(2-phenylthieno[3,2-c]pyridin-4-yl)-N-[(3R)-3-piperidyl]benzamide]: 260 nM.
Take `Cn1cc(-c2ccc(C(=O)N(c3nccc4sc(-c5ccsc5)cc34)[C@@H]3CCCNC3)c(F)c2)nn1` [Example 511, 2-fluoro-4-(1-methyltriazol-4-yl)-N-[(3R)-3-piperidyl]-N-[2-(3-thienyl)thieno[3,2-c]pyridin-4-yl]benzamide]: the concentration for half-maximal inhibition (IC50) was found to be 250 nM.
Next, `Cc1cccc2ccnc(N(C(=O)c3cccc(C#CCCO)c3)[C@@H]3CCCNC3)c12` [Example 512, (R)-3-(4-hydroxybut-1-yn-1-yl)-N-(8-methylisoquinolin-1-yl)-N-(piperidin-3-yl)benzamide]: 1100 nM; `Cc1cccc2ccnc(N(C(=O)c3cccc(C#CCCCO)c3)[C@@H]3CCCNC3)c12` [Example 513, (R)-3-(5-hydroxypent-1-yn-1-yl)-N-(8-methylisoquinolin-1-yl)-N-(piperidin-3-yl) benzamide]: 540 nM; `Cc1cccc2ccnc(N(C(=O)c3cccc(C#CCCCCO)c3)[C@@H]3CCCNC3)c12` [Example 514, (R)-3-(6-hydroxyhex-1-yn-1-yl)-N-(8-methylisoquinolin-1-yl)-N-(piperidin-3-yl)benzamide]: 890 nM.
Then `Cc1cccc2ccnc(N(C(=O)c3cccc(C#CCCN)c3)[C@@H]3CCCNC3)c12` [Example 515, (R)-3-(4-aminobut-1-yn-1-yl)-N-(8-methylisoquinolin-1-yl)-N-(piperidin-3-yl)benzamide], with 2100 nM.
